Biological target: T1, α4β7 integrin binding to human MAdCAM-1-Ig (Homo sapiens, UniProt P13612+P26010)
T1 construct: endogenous in cells; host or cells: RPMI 8866 cells
T1 sequence (P13612 34-1032): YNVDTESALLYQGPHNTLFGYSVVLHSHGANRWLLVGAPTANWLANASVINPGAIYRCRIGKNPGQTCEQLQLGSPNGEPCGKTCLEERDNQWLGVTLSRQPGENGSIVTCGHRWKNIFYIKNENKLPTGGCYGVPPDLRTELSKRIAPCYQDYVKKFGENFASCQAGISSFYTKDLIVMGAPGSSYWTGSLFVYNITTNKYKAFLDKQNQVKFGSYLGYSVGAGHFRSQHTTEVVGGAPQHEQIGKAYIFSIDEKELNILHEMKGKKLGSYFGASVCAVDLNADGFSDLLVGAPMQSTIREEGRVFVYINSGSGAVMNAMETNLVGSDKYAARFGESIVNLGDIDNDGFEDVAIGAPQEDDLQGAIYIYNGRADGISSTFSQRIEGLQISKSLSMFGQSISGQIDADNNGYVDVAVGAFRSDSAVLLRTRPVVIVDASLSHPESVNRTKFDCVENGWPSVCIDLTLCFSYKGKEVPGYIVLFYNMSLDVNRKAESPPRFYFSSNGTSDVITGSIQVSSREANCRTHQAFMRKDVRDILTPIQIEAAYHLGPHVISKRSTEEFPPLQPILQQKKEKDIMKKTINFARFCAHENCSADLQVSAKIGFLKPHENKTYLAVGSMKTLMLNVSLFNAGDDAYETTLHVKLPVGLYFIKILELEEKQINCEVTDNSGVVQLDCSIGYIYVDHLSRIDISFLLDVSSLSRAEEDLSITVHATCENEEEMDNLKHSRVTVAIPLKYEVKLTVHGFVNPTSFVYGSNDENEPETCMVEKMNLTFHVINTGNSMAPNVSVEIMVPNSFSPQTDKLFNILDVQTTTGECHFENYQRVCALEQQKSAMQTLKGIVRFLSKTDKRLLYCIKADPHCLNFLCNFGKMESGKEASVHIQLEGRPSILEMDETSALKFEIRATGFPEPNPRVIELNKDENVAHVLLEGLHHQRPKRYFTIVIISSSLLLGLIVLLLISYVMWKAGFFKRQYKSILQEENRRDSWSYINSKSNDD
T1 sequence (P26010 20-798): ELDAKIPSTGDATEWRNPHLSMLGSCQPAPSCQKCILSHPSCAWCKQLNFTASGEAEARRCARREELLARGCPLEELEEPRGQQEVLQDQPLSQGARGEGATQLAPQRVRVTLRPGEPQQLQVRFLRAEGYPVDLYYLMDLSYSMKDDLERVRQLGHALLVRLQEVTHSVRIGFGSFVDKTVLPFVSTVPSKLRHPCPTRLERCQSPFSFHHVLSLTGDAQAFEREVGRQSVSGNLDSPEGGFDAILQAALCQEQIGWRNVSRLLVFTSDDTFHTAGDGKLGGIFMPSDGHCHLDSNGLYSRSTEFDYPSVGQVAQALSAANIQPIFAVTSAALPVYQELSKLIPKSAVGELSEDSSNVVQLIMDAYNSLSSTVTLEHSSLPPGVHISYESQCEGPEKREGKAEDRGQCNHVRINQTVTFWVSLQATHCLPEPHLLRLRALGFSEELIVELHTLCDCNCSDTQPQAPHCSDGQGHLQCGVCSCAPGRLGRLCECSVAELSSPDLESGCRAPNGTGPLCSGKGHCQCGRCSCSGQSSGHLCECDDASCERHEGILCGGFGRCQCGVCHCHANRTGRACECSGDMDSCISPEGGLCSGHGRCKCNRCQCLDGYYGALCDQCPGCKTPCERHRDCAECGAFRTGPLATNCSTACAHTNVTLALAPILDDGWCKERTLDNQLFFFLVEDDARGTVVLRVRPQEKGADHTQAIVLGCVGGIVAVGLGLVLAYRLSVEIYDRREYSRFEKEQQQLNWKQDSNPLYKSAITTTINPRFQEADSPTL
Experiment: Adhesion inhibition assay (BCEF-labeled RPMI 8866 cells on huMAdCAM-1-Ig coated plates)
Assay type: cell-based
Method: Biological Results. Adhesion Inhibition Assay Method
RPMI 8866 cells are used in this assay. They are available in a medium with 10% FBS, 200 mM L-Glutamine, and penicillin/streptomycin 10x.
1. Coat plates (costar 3590) with a human MAdCAM-1-Ig dilution prepared in carbonate buffer (25 ng of huMAdCAM/well in 50 μl carbonate buffer) overnight at 4° C. Carbonate buffer is NaHCO3 3.44 g, Na2CO3 1.72 g, water qs 200 ml; adjust pH to 9.5, filter thru 0.2 μm and store at 4° C.
2. Wash plates with the plate washer (BioTeck Instruments EL404) once, using settings for washing cell rinse, with the following parameters:
3. Block wells with blocking buffer (10% calf serum, PBS), 100 μl/well, 37° C., 3 h.
4. Wash plates with the plate washer once, using settings for washing cell rinse. Use plates within 10 min after washing.
5. Label the RPMI 8866 cells with 2′,7′-bis-(2-carboxyethyl)-5-6-carboxy-fluorescein acetoxymethyl ester (BCEF-AM) as follows:
spin down the cells at 1500 rpm, 10 min. Decant supernatant. Resuspend cells at 4×10^6 cells/ml sterile PBS in 50 ml polypropylene tube. Add 2 μl BCEF-AM per ml of resuspended cells. Mix well and wrap tube in aluminum foil (to exclude light). Place cells at 37° C. for 30 min to label. Spin labeled cells down (while covered in aluminum foil) at 1500 rpm, 10 min. Decant supernatant. Resuspend labeled cells in 25 ml assay buffer and centrifuge at 1500 rpm, 10 min. Resuspend labeled cells in assay buffer at 2.5×10^6 cells/ml.
(assay buffer: HBSS, penicillin/streptomycin 10×, MnCl2 0.5 mM, Hepes 25 mM, pH=7.2)
6. Prepare dilutions of positive control: LDP-02 (α4β7 integrin blocking antibody) in assay buffer at 250 μg/ml and compounds of the invention in DMSO for addition to assay plates.
7. To polypropylene plate, add, with Multimek:
2.2 μl/well of 100% DMSO or compound dilutions;
147.8 μl/well of assay buffer to all wells;
50 μl/well of BCEF-labeled RPMI 8866 cells (at 2.5×10^6 cells/ml assay buffer);
Mix well and add 180 μl of the mix to huMAdCAM-1-Ig coated plate.
8. Read plate in fluorescent plate reader (excite at 485 nm, read at 535 nm) and adjust the gain (total signal).
9. Wrap plates in aluminum foils and incubate at 25° C. for 30 min.
10. Wash plates with the plate washer using settings for washing cell rinse.
11. Read plate in fluorescent plate reader (excite at 485 nm, read at 535 nm).
The following Table 2 summarizes the results for some of the compounds and indicates the IC50 in μM.

Cc1ccccc1N1C(=O)NC(=O)/C(=C/C=C/c2ccccc2)C1=O [Example 35, 5-(3-Phenyl-allylidene)-1-o-tolyl-pyrimidine-2,4,6-trione] and O=C1NC(=O)N(c2ccccc2Cl)C(=O)/C1=C\C=C\c1ccccc1 [Example 43, 1-(2-Chloro-phenyl)-5-(3-phenyl-allylidene)-pyrimidine-2,4,6-trione] are within 1.5-fold of each other in IC50: 2.65 µM for the first, 1.9 µM for the second.

Going from O=C1NC(=O)N(c2cccc3ccccc23)C(=O)/C1=C\c1c[nH]c2ccccc12 [Example 1, 5-(1H-Indol-3-ylmethylene)-naphthalen-1-yl-pyrimidine-2,4,6-trione] to Cn1cc(/C=C2/C(=O)NC(=O)N(c3cccc4ccccc34)C2=O)c2ccccc21 [Example 2, 5-(1-Methyl-1H-indol-3-ylmethylene)-1-naphthalen-1-yl-pyrimidine-2,4,6-trione], the IC50 rises from 0.41 µM to 0.94 µM (2.3-fold). The first is the more potent here.

First: Cc1ccc(N2C(=O)NC(=O)/C(=C\C=C\c3ccccc3)C2=O)cc1 [Example 42, 5-(3-Phenyl-allylidene)-1-p-tolyl-pyrimidine-2,4,6-trione]
Second: Cc1cccc(N2C(=O)NC(=O)/C(=C\C=C\c3ccccc3)C2=O)c1 [Example 16, 5-(3-Phenyl-allylidene)-1-m-tolyl-pyrimidine-2,4,6-trione]
The IC50 of the first is 2.9-fold higher: 2.6 µM for the first, 0.9 µM for the second.

O=C1NC(=O)N(c2cccc3cccnc23)C(=O)/C1=C/C=C/c1ccccc1 [Example 51, 5-(3-Phenyl-allylidene)-1-quinolin-8-yl-pyrimidine-2,4,6-trione] and Cc1ccccc1N1C(=O)NC(=O)/C(=C/c2cn(C)c3ccccc23)C1=O [Example 15, 5-(1-Methyl-1H-indol-3-ylmethylene)-1-o-tolyl-pyrimidine-2,4,6-trione] are within 1.5-fold of each other in IC50: 2.7 µM for the first, 2.3 µM for the second.

Cc1cccc(N2C(=O)NC(=O)/C(=C/c3c[nH]c4ccccc34)C2=O)c1 [Example 17, 5-(1H-Indol-3-ylmethylene)-1-m-tolyl-pyrimidine-2,4,6-trione] and O=C1NC(=O)N(c2cccc(Cl)c2)C(=O)/C1=C/c1c[nH]c2ccccc12 [Example 37, 1-(3-Chloro-phenyl)-5-(1H-indol-3-ylmethylene)-pyrimidine-2,4,6-trione] are within 1.5-fold of each other in IC50: 2.93 µM for the first, 2.75 µM for the second.

Going from O=C1NC(=O)N(c2ccccc2Cl)C(=O)/C1=C\c1c[nH]c2ccccc12 [Example 18, 1-(2-Chloro-phenyl)-5-(1H-indol-3-ylmethylene)-pyrimidine-2,4,6-trione] to O=C1NC(=O)N(Cc2cccnc2)C(=O)/C1=C/c1c[nH]c2ccccc12 [Example 49, 5-(1H-indol-3-ylmethylene)-1-pyridin-3-ylmethyl-pyrimidine-2,4,6-trione], the IC50 falls from 2.5 µM to 1.3 µM (1.9-fold). The second is the more potent here.

Compound Cc1cccc(N2C(=O)NC(=O)/C(=C\c3ccc[nH]3)C2=O)c1 [Example 24, 5-(Pyrrol-2-ylmethylene)-1-m-tolyl-pyrimidine-2,4,6-trione] has an IC50 of 2.95 µM.
